For two molecules, EC50 results are on record in publication PMC2884290 (Neuropsychopharmacology : official publication of the …, 2009).

Like-named read-outs stand apart in the source and are kept apart here.

Assay [1] has as its target T1, mGluR5 (Rattus norvegicus, UniProt P31424). The class given is cell-based.
The target of assay [2] is T1, mGluR5. As to the kind of experiment: PI hydrolysis in rat hippocampal slices.

T1 sequence (P31424 21-1203): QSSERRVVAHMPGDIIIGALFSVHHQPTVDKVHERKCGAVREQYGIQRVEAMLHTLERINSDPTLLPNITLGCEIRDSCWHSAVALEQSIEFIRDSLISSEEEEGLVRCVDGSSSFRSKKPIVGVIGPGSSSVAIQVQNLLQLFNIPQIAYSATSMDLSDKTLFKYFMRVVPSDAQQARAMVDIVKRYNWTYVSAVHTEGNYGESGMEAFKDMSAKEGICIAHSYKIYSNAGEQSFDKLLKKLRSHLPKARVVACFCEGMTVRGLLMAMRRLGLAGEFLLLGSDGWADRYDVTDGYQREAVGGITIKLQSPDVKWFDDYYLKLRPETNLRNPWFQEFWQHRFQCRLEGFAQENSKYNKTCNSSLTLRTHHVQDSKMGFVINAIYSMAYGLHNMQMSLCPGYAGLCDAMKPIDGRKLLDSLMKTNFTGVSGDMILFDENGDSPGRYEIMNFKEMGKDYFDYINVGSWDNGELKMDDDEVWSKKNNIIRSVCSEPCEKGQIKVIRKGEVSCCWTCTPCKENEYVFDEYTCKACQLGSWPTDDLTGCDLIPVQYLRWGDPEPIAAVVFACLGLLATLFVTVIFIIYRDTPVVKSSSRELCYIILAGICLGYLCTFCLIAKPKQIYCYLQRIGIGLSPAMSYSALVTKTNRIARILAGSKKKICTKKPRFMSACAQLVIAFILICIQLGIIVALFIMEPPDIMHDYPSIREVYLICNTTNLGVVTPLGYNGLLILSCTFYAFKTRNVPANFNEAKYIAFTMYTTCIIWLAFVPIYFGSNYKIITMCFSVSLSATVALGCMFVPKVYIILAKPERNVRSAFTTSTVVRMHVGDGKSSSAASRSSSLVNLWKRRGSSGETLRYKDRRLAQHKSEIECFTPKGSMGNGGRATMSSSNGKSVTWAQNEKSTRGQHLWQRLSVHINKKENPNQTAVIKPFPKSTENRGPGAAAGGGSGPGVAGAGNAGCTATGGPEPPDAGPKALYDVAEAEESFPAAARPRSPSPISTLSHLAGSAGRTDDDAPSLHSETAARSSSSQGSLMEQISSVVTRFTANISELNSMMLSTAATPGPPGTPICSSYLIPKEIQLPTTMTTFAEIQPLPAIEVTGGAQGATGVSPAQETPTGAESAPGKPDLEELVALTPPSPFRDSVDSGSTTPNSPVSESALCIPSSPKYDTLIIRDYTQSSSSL

With `O=C(c1ccc(F)cc1)N1CCC[C@H](c2nc(-c3ccc(F)cc3)no2)C1` [ADX47273], the EC50 on mGluR5 [1] came out at 0.108 ± 0.041 µM.
In the case of `NC(C(=O)O)c1cc(O)cc(O)c1` (centres unmarked) [DHPG], a half-maximal effect at mGluR5 [2] (EC50) was put at 8 ± 1.6 µM.
